Assay results taken from patent US6635636B1, “Substituted 6-benzyl-4-oxopyrimidines, process for their preparation and pharmaceutical compositions containing them” (Idenix Pharmaceuticals, Inc., priority 1998, dated 2003).
Where two headings read alike, the source gives them in different places.

Assays:
HIV-1 (IIIB strain) = assay: Anti-HIV-1 assay: inhibition of virus-induced cytopathicity in acutely infected MT-4 cells (MTT); format: cell-based; settings: mean of at least two separate experiments
Method: (§1) Compounds. Compounds were solubilized in DMSO at 200 mM and then diluted into culture medium.
(§2) Cells and viruses. MT-4, C8166, H9/IIIB and CEM cells were grown at 37° C. in a 5% CO2 atmosphere in RPMI 1640 medium, supplemented with 10% fetal calf serum (FCS), 100 UI/mL penicillin and 100 μg/mL streptomycin. Cell cultures were checked periodically for the absence of mycoplasma contamination with a MycoTect Kit (Gibco). Human immunodeficiency virus type-1 (HIV-1, IIIB strain) was obtained from supernatants of persistently infected H9/IIIB cells.
(§3) Anti-HIV assays. Activity of the compounds against HIV-1 and HIV-2 multiplication in acutely infected cells was based on the inhibition of virus-induced cytopathicity in MT-4 and C8166 cells, respectively. Briefly, 50 μL of culture medium containing 1×10^4 cells were added to each well of flat-bottom microtiter trays containing 50 μl of culture medium with or without various concentrations of the test compounds. Then 20 μL of an HIV suspension containing 100 CCID50 were added. After a 4-day incubation at 37° C., the number of viable cells was determined by the 3-(4,5-dimethylthiazol-[…])-2,5-diphenyltetrazolium bromide (MTT) method. Cytotoxicity of the compounds was evaluated in parallel with their antiviral activity. It was based on the viability of mock-infected cells, as monitored by the MTT method.

mock-infected MT-4 cells = assay: Cytotoxicity: viability of mock-infected cells by the MTT method; format: cell-based
Method: as §1, §2, §3

[1] = MT-4 cells, HIV-1, MTT method, read-out: EC50 (compound dose required to achieve 50% protection of MT-4 cells from HIV-1 induced cytopathogenicity)
[2] = HIV-1 infected MT-4 cells, MTT method, read-out: EC50: compound dose required to achieve 50% protection of MT-4 cells from HIV-1 induced cytopathogenicity

Row | Structure (SMILES) | EC50 (HIV-1 (IIIB strain); [1]) [µM] | EC50 (HIV-1 (IIIB strain); [2]) [µM] | melting point [°C] | CC50 (mock-infected MT-4 cells) [µM]
1 | CCC(C)Oc1nc(Cc2c(F)cccc2F)cc(=O)[nH]1 (racemic) [MC 1114] | 25 | – | – | 130
2 | CC(C)Nc1nc(C(C)c2c(F)cccc2F)cc(=O)[nH]1 (racemic) [MC 1191] | – | 0.03 | – | 115
3 | CC(c1ccccc1)c1cc(=O)[nH]c(SC2CCCC2)n1 (racemic) [MC 892] | 0.6 | – | – | 159
4 | CCC(C)Sc1nc(Cc2cccc(F)c2)cc(=O)[nH]1 (racemic) [MC 884] | 0.7 | – | – | > 200
5 | Cc1c([C@@H](C)c2c(F)cccc2F)nc(SC2CCCC2)[nH]c1=O [MC 1047] | 0.009 | – | – | > 200
6 | CC(c1cc(=O)[nH]c(NC2CCCCC2)n1)c1c(F)cccc1F (racemic) [MC 1180] | – | 0.02 | – | 56
7 | CCC(C)Sc1nc(Cc2ccc([N+](=O)[O-])cc2)cc(=O)[nH]1 (racemic) [MC 863] | 1.5 | – | – | 151
8 | CNc1nc(C(C)c2c(F)cccc2F)c(C)c(=O)[nH]1 (racemic) [MC 1170] | – | 0.03 | – | 200
9 | CC1CCC(C)C(Oc2nc(Cc3ccccc3)cc(=O)[nH]2)C1 (mixture of isomers) [MC 507] | 3.5 | – | – | 143
10 | CCC(C)Sc1nc(Cc2ccc(F)cc2)cc(=O)[nH]1 (racemic) [MC 889] | 8.7 | – | – | > 200
11 | Cc1c(C(C)c2c(F)cccc2F)nc(SC2CCCCC2)[nH]c1=O (racemic) [MC 1174] | – | 0.018 | – | > 200
12 | CCC(C)Sc1nc(Cc2ccc(Cl)cc2)cc(=O)[nH]1 (racemic) [MC 859] | 5 | – | – | 120
13 | CC(C)Sc1nc(C(C)c2ccccc2)cc(=O)[nH]1 (racemic) [MC 890] | 0.9 | – | – | > 200
14 | Cc1c(C(C)c2c(F)cccc2F)nc(SC(C)C)[nH]c1=O (racemic) [MC 1137] | – | 0.007 | – | 200
15 | CCC(C)Sc1nc(Cc2ccc(C(F)(F)F)cc2)cc(=O)[nH]1 (racemic) [MC 959] | 25 | – | – | 200
16 | CCC(c1ccccc1)c1cc(=O)[nH]c(SC(C)C)n1 (racemic) [MC 899] | 0.8 | – | – | 200
17 | CCC(C)Sc1nc(Cc2ccccc2[N+](=O)[O-])cc(=O)[nH]1 (racemic) [MC 817] | 0.25 | – | – | > 200
18 | CCCCNc1nc(C(C)c2c(F)cccc2F)c(C)c(=O)[nH]1 (racemic) [MC 1187] | – | 0.01 | – | 83
19 | Cc1c(Cc2c(F)cccc2F)nc(NC2CCCC2)[nH]c1=O [MC1050, 2-Cyclopentylamino-6-(2,6-difluorophenylmethyl)-3,4-dihydro-5-methylpyrimidin-4-one] | – | – | 115 to 117 | –

More lines, main results first:

Row | EC50 (HIV-1 (IIIB strain); [1]) [µM] | EC50 (HIV-1 (IIIB strain); [2]) [µM] | melting point [°C] | Structure (SMILES) | CC50 (mock-infected MT-4 cells) [µM]
20 | 1 | – | – | CCC(c1ccccc1)c1cc(=O)[nH]c(SC2CCCC2)n1 (racemic) [MC 900] | > 200
21 | 32 | – | – | CCC(C)Sc1nc(Cc2ccccc2C(F)(F)F)cc(=O)[nH]1 (racemic) [MC 868] | > 200
22 | – | 0.03 | – | CCCCNc1nc(C(C)c2c(F)cccc2F)cc(=O)[nH]1 (racemic) [MC 1189] | 52
23 | – | 0.01 | – | Cc1c(C(C)c2c(F)cccc2F)nc(SCC(C)C)[nH]c1=O (racemic) [MC 1153] | > 200
24 | 0.11 | – | – | CNc1nc(C(C)c2c(F)cccc2F)cc(=O)[nH]1 (racemic) [MC 1178] | 106
25 | 6.4 | – | – | CC1CCC(Oc2nc(Cc3ccccc3)cc(=O)[nH]2)CC1C (mixture of isomers) [MC 508] | 58
26 | > 61 | – | – | CCC(C)Sc1nc(C(c2ccccc2)c2ccccc2)cc(=O)[nH]1 (racemic) [MC 796] | 61
27 | 1.3 | – | – | CCC(c1ccccc1)c1cc(=O)[nH]c(SC2CCCCC2)n1 (racemic) [MC 903] | > 200
28 | 0.4 | – | – | CCC(C)Sc1nc(Cc2cccc([N+](=O)[O-])c2)cc(=O)[nH]1 (racemic) [MC 897] | 157
29 | – | 0.04 | – | CCC(C)Nc1nc(C(C)c2c(F)cccc2F)cc(=O)[nH]1 (mixture of isomers) [MC 1192] | 86
30 | 0.6 | – | – | CCC(C)Sc1nc(Cc2ccc(C)cc2)cc(=O)[nH]1 (racemic) [MC 809] | 200
31 | 3.5 | – | – | Cc1c(Cc2ccccc2)nc(OC2CC(C)CCC2C)[nH]c1=O (mixture of isomers) [MC 531] | 138
32 | 1.8 | – | – | CCC(C)Sc1nc(Cc2ccccc2C)cc(=O)[nH]1 (racemic) [MC 806] | > 200
33 | – | 0.03 | – | Cc1c(C(C)c2c(F)cccc2F)nc(NC2CCCCC2)[nH]c1=O (racemic) [MC 1181] | 58
34 | 30 | – | – | CC1CC(C)CC(Oc2nc(Cc3ccccc3)cc(=O)[nH]2)C1 (mixture of isomers) [MC 512] | > 200
35 | – | 0.008 | – | CCCCSc1nc(C(C)c2c(F)cccc2F)c(C)c(=O)[nH]1 (racemic) [MC 1175] | 112
